Reference: PMC3820767, “Turning Defense into Offense: Defensin Mimetics as Novel Antibiotics Targeting Lipid II” (PLoS Pathogens, 2013)

What was measured:
human red blood cells = assay: Red Blood Cell (RBC) lysis; format: cell-based; settings: human RBCs, 30 min, room temperature, up to 16× MIC
Experimental: The method described by Stasiuk et al. was followed in general. Defibrinated human blood (Valley BioMedical) was washed three times with buffer (10 mM Tris-HCl, pH 7.4, 0.9% NaCl) and resuspended to a final concentration of 3% RBCs immediately prior to performing the assay. One hundred eighty microliters of RBCs were added to 1020 µl buffer containing various concentrations of the investigational compound. […] DMSO alone (5% final concentration) served as the negative control to subtract the background, while a reaction with water substituted for buffer served as a positive control that completely lyses the RBCs. […] Incubation of compounds and RBCs proceeded for 30 minutes at room temperature, followed by centrifugation at 1,300× g for 5 minutes to pellet the RBCs. Finally, 300 µl of the supernatant was removed to a 96-well plate and the released hemoglobin was measured at A540 using a SpectraMax (Molecular Dynamics) plate reader. Prism (GraphPad) software was used for data analysis. Results were expressed as percent lysis compared to treatment of RBCs with deionized water, which completely ruptures the membrane. Analyses were performed by Micromyx, LLC (Kalamazoo, Michigan).

LUV leakage assay = assay: LUV leakage assay
Experimental: Large unilamellar vesicles were prepared by the extrusion technique. Vesicles were made of Di-Palmoyl-Phosphatidyl Choline (DPPC, Avanti Polar Lipids) with or without 0.1 mol % Lipid II. Vesicles were prepared with 50 mM rhodamine, washed with saline solution and purified by G25 Sephadex column (GE healthcare). Compounds were diluted in saline solution in 96-well plate format and vesicles were added to each well. The increase of fluorescence intensity was measured at 612 nm (excitation at 544 nm) on a Molecular Dynamics spectrophotometer at 20 °C. Compound-induced leakage was expressed relative to the total amount of rhodamine released after lysis of the vesicles by addition of 10 µl of 20% Triton X-100.

[1] = system: Escherichia coli ATCC 25922; assay: Antibacterial killing, 96-well turbidimetric (modified vCC) assay; format: cell-based; settings: for active against E.coli (IC100%): Table S3, concentration at which 100% killing occurred, no bacterial regrowth, No = not active; for Bacterial Killing E. coli: concentration resulting in 100% killing after 30 min exposure, modified vCC assay
Method in brief: (§1)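 For the S. pneumoniae strains, MIC values follow CLSI broth microdilution standards. The staphylococcal and E. coli killing assay instead pre-incubated bacteria with compound for 30 min in 10 mM phosphate buffer containing 5% DMSO before adding 2× Mueller-Hinton medium, monitoring growth over 12 hours.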

[2] = system: Staphylococcus aureus ATCC 29213; assay: as above; format: cell-based; settings: concentration resulting in 100% killing after 30 min exposure, modified vCC assay
Method in brief: as §1

[3] = Cytotoxicity by MTT assay; format: cell-based, human; settings: human, Jurkat cells; concentration resulting in 50% cell survival, MTT, 4 h; read-out: Cytotoxicity (C50%) Jurkat
S. aureus ATCC 29213 = assay: Murine peritoneal sepsis model; format: in vivo, C57BL/6J mice; settings: mice n = 5, i.p. treatment 1 h and 4 h post-infection; compound […], vancomycin/lysostaphin 5 mg/kg
Experimental: Mice were fed standard chow (Harlan Laboratories) and water ad libitum. […] Animals were closely observed during a period of 24 hours and mice that show signs of severe sepsis were humanely euthanized. Blood samples were collected by retro-orbital puncture at the indicated intervals post-infection using lithium-heparin polystyrene tubes to prevent coagulation. […] Whole blood samples and spleen homogenates were serially diluted and plated onto LB agar plates.

[4] = Surface Plasmon Resonance binding to immobilized 3-Lipid II; settings: SPR; for Binding on Lipid II?: Table S3, initial determination at 10 µM
Method in brief: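 Binding was measured by Surface Plasmon Resonance on a BIAcore T100 instrument at 25°C. Peptides were injected over the sensor flow-cells at 30 µl/min in running buffer of 10 mM HEPES, 150 mM NaCl, 0.05% surfactant P20, pH 7.4 (±3 mM EDTA) with 10% DMSO. Control flow-cell signals were subtracted, surfaces were regenerated with 50 mM NaOH, and isotherms were fitted with BIAcore software.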

[5] = system: Streptococcus pneumonia (PRSP) MMX884; assay: Broth microdilution susceptibility testing (CLSI); format: cell-based, Streptococcus pneumoniae; settings: Streptococcus pneumoniae, PRSP, read-out: MIC Streptococcus pneumonia (PRSP) 884-NA
Experimental: The antibacterial activity of defensin mimetics against Staphylococcus aureus ATCC 29213 and Escherichia coli 25922 was carried out in a 96-well turbidimetric assay essentially as described previously with the following modifications: bacteria were exposed for 30 min to compounds in 10 mM phosphate buffer containing 5% DMSO prior to addition of 2× Muller-Hinton medium. Bacterial growth was monitored for 12 hours and data were analyzed as described. Determination of MICs was performed by Micromyx, LLC (Kalamazoo, Michigan) according to CLSI standards.

lysis of red blood cells (human red blood cells)	Binding on Lipid II? [4]	Kd ([4]; immobilized 3-Lipid II) [µM]	MIC [5] [mg/L]	SMILES	leakage of LUVs (LUV leakage assay; 8 µg/ml (16× MIC for S. aureus))	effect of Lipid II on compound-induced lysis of LUVs (LUV leakage assay; LUVs with vs without Lipid II)	active against E.coli (IC100%) [1]	Bacterial Killing E. coli [1] [µM]	Bacterial Killing S. aureus [2] [µM]	IC50 at 4 h [3] [µM]	survival (S. aureus ATCC 29213)	membrane rupture in LUVs (LUV leakage assay; LUVs with or without Lipid II)
does not induce lysis of red blood cells	Yes	1.71	8	CN1/C(=C/C=C/c2cc(-c3ccccc3)cc(-c3ccccc3)[o+]2)C(C)(C)c2ccccc21 [BAS00127538, 2,4-diphenyl-6-[(1E)-3-[(2E)-1,3,3-trimethyl-2,3-dihydro-1H-indol-2-ylidene]prop-1-en-1-yl]-1$l^4-pyran-1-ylium]	significant leakage	reduced by the presence of Lipid II	7,8 µM	7.8	0.244	14.5	4 out of five animals	
significant membrane rupture	No		> 8	CN(C)c1ccc(/C=C/c2cc(-c3ccccc3)[o+]c(-c3ccccc3)c2)cc1 [Compound 1499-1221]			125 µM	125	0.031	18.6		significant membrane rupture in LUVs irrespective of Lipid II
